Results on six compounds are retold here after patent publication US20110098323A1, “INHIBITORS OF BACTERIAL BIOFILM FORMATION” (MICROBIOTIX, INC., priority 2009, published 2011).

Like-named read-outs stand apart in the source and are kept apart here. Bounds are passed on as bounds.

As usually defined, the MIC is the lowest concentration that inhibits growth of the organism.

What all share (experiment): MBIC/MIC secondary assay
Assay type in all cases: cell-based

Test [1] concerns Escherichia coli (ATCC 25922). As to conditions: for MIC: Escherichia coli, ATCC25922. The protocol:
(§1) Assays for detecting and measuring bacterial biofilm formation are known in the art. An example of a biofilm formation assay useful in detecting and characterizing biofilm inhibitor compounds is described in Example 1, infra. Briefly, bacterial cells are inoculated into growth medium in individual wells of a 96-well assay plate in the presence or absence of a compound (known biofilm inhibitor or test compound). After incubation for a specified time, growth medium and non-biofilm bacterial cells are removed from each of the wells. The bacterial cells in any biofilms that are adhered to the surface of a well are fixed by addition of ethanol. The ethanol is removed, and the fixed biofilm bacteria cells are stained with crystal violet (CV). The intensity of CV staining is directly correlated with bacterial biofilm formation and is measured in the wells by reading the optical density at 600 nm (OD600). The difference in biofilm formation between untreated control and treated cultures provides an indication of relative biofilm inhibition activity (anti-biofilm activity). Use of different concentrations of an inhibitor in multiple and otherwise duplicate cultures permits determination of a compound's Minimal Biofilm Inhibitory Concentration (MBIC), which is defined herein as the lowest concentration of a compound that inhibits biofilm formation by at least 80% (i.e., ≧80%) compared to untreated control cultures. […]
(§2) A secondary assay provided a quantitative measure of both anti-biofilm activity and antibacterial activity in terms of the Minimal Biofilm Inhibitory Concentration (MBIC) and the Minimal Inhibitory Concentration (MIC), respectively. The MBIC and MIC are defined as the lowest compound concentrations that inhibit biofilm formation and bacterial growth, respectively, by at least 80% (i.e., ≧80%). The MBIC/MIC assay is formatted in a manner that is similar to the Microbroth dilution assays described by the Clinical and Laboratory Standards Institute (CLSI; formerly NCCLS) in protocol M7-A7. The growth conditions were optimized for biofilm growth in 96-well assay plates such that the resulting CV staining was within the linear range of detection. Therefore, the MBIC/MIC assay provided a stringent measure of anti-biofilm activity.
(§3) The assay was adapted for several biofilm-forming strains of S. epidermidis, S. aureus, Enterococcus faecalis, and Pseudomonas aeruginosa. Briefly, 96-well assay plates contained a two-fold dilution series for up to 8 compounds (one compound/row) and untreated controls (concentration range of 0.2 μM-100 μM). The assay plates were inoculated with the test bacterial species, e.g., S. epidermidis 18972 (0.5×TSB, 0.25% glucose) or S. aureus ATCC 35556 (0.5×TSB, 1% glucose). The inocula were prepared by diluting an overnight culture 1:100 in fresh media, which corresponds to approximately 5×10^6 cells/well. After inoculation, the assay plates were sealed with foil tape and incubated for 18 h-20 h at 37° C. The assay plates were processed, and the percent inhibition of growth (% INH-Growth) and percent inhibition of biofilm formation (% INH-Biofilm) were calculated as described above. […] Compounds with an MBIC≦10 μM and an MIC/MBIC ratio≧8 for either S. epidermidis or S. aureus were designated as validated hits.
(§4) Compounds were also tested for anti-biofilm activity against a strain of biofilm-forming, vancomycin-resistant Enterococcus faecalis strain (ATCC 51299), the Gram-negative biofilm-forming opportunistic pathogen Pseudomonas aeruginosa PAO1 ([…]), and a Gram-negative, biofilm-forming strain of Escherichia coli (ATCC 25922).

Test [2] concerns Pseudomonas aeruginosa PAO1. As to conditions: for MIC: Pseudomonas aeruginosa, PAO1. The method, then:
as §1, §2, §3, §4

The subject of test [3] is vancomycin-resistant Enterococcus faecalis strain (ATCC 51299). The note with it: for MIC: Enterococcus faecalis, ATCC51299. The method, then:
as §1, §2, §3, §4

Turning to `CCOc1cc(/C=C2\SC(=S)N(c3ccc(F)cc3)C2=O)ccc1O` [Compound 4, 3-(4-fluorophenyl)-5-(3-ethoxy-4-hydroxybenzylidene)-2-thioxothiazolidin-4-one], the MBIC result in test [1] (E. coli strain 25922) is “≧100 μM”; in test [2] (P. aeruginosa strain PA01), “≧100 μM”; in test [3] (E. faecalis strain 51299), 12.5 µM. In addition, the MIC in test [1], in test [2] and in test [3] was at least 100 µM throughout.

Turning to `CCOc1cc(/C=C2\SC(=S)N(c3cccc(F)c3)C2=O)ccc1O` [Compound 8, 3-(3-fluorophenyl)-5-(3-ethoxy-4-hydroxybenzylidene)-2-thioxothiazolidin-4-one], the MBIC entry is “≧100 μM” in test [1] (E. coli strain 25922), “≧100 μM” in test [2] (P. aeruginosa strain PA01) and 25 µM in test [3] (E. faecalis strain 51299). Besides, the MIC in test [1], in test [2] and in test [3] was at least 100 µM throughout.

In the case of `C=CCOc1cc(/C=C2\SC(=S)N(c3ccc(F)cc3)C2=O)ccc1O` [Compound 29, 3-(4-fluorophenyl)-5-(3-allyloxy-4-hydroxybenzylidene)-2-thioxothiazolidin-4-one], the MBIC entry is “≧100 μM” in test [1] (E. coli strain 25922), “≧100 μM” in test [2] (P. aeruginosa strain PA01) and 12.5 µM in test [3] (E. faecalis strain 51299). Besides, the minimal inhibitory concentration (MIC) in test [1] (E. coli strain 25922, read-out: MIC) was at least 100 µM; in test [2] (P. aeruginosa strain PA01, read-out: MIC), at least 100 µM; in test [3] (E. faecalis strain 51299, read-out: MIC), at least 100 µM.

As for `CCOc1cc(/C=C2\SC(=S)N(c3cccc(C#N)c3)C2=O)ccc1O` [Compound 34, 3-(3-cyanophenyl)-5-(3-ethoxy-4-hydroxybenzylidene)-2-thioxothiazolidin-4-one], the results for the MBIC entry in test [1] (E. coli strain 25922), in test [2] (P. aeruginosa strain PA01) and in test [3] (E. faecalis strain 51299) were “≧100 μM”, “≧100 μM” and 12.5 µM, respectively. In addition, the MIC in test [1], in test [2] and in test [3] was at least 100 µM in each case.

For the compound `CCOc1cc(/C=C2\SC(=S)N(c3cccnc3)C2=O)ccc1O` [Compound 36, 3-(pyridin-3-yl)-5-(3-ethoxy-4-hydroxybenzylidene)-2-thioxothiazolidin-4-one], the MBIC result is “≧100 μM” in test [1] (E. coli strain 25922), “≧100 μM” in test [2] (P. aeruginosa strain PA01) and 12.5 µM in test [3] (E. faecalis strain 51299). In addition, the MIC in test [1], in test [2] and in test [3] was at least 100 µM throughout.

In the case of `CCOc1cc(/C=C2\SC(=S)N(c3ccc(F)nc3)C2=O)ccc1O` [Compound 40, 3-(6-fluoropyridin-3-yl)-5-(3-ethoxy-4-hydroxybenzylidene)-2-thioxothiazolidin-4-one], the MBIC result is “≧100 μM” in test [1] (E. coli strain 25922), “≧100 μM” in test [2] (P. aeruginosa strain PA01) and 6.3 µM in test [3] (E. faecalis strain 51299). Besides, the minimal inhibitory concentration (MIC) in test [1], in test [2] and in test [3] was at least 100 µM in each case.
